Data as given in patent US20250115597A1, “TYK2 INHIBITORS AND COMPOSITIONS AND METHODS THEREOF” (LYNK PHARMACEUTICALS CO. LTD., priority 2021, published 2025).

Target: T1, Ba/F3-FL-TYK2-P760L cells (Homo sapiens, UniProt P29597, P760L, cells depend on it)
T1 construct: BaF3-FL-T2P760L (nM)
Experiment: Anti-proliferative assay, Ba/F3-FL-TYK2-P760L cells (Cell-Titer Glo)
Format: cell-based
Details: 72 h, read-out: BaF3-FL-T2P760L IC50
Protocol: Anti-Proliferative Assay Dimerization domain of Tel protein fused with JAK kinase domain was permanently transduced into Ba/F3 cells, whose proliferation is dependent on JAK activity in the absence of IL-3 induction. These engineered Ba/F3 cells (Ba/F3-FL-TYK2-[…], Ba/F3-TEL-TYK2 and Ba/F3-TEL-JAK2) were used to monitor JAK inhibitory activities of the compounds in the cellular. […] Cells were seeded at 2000/well of white flat bottom 96-well plates. The well containing medium only was used as background control. After 24 h growth, cells were treated with compounds. The test compounds were dissolved in DMSO to a stock concentration of 20 mM. 3-fold serially diluted compounds for 9 concentrations with top concentration of 20 μM was added into the each well. […] The cells continued to grow at 37° C. in 5% CO2 for 72 h after compound treatment. The viability was measured by cellular ATP determination using the Cell-Titer Glo luciferase reagent (Promega). The Luminescence value was recorded by a multi-label reader Envision (PerkinElmer).

T1 sequence (P29597 whole entry P760L): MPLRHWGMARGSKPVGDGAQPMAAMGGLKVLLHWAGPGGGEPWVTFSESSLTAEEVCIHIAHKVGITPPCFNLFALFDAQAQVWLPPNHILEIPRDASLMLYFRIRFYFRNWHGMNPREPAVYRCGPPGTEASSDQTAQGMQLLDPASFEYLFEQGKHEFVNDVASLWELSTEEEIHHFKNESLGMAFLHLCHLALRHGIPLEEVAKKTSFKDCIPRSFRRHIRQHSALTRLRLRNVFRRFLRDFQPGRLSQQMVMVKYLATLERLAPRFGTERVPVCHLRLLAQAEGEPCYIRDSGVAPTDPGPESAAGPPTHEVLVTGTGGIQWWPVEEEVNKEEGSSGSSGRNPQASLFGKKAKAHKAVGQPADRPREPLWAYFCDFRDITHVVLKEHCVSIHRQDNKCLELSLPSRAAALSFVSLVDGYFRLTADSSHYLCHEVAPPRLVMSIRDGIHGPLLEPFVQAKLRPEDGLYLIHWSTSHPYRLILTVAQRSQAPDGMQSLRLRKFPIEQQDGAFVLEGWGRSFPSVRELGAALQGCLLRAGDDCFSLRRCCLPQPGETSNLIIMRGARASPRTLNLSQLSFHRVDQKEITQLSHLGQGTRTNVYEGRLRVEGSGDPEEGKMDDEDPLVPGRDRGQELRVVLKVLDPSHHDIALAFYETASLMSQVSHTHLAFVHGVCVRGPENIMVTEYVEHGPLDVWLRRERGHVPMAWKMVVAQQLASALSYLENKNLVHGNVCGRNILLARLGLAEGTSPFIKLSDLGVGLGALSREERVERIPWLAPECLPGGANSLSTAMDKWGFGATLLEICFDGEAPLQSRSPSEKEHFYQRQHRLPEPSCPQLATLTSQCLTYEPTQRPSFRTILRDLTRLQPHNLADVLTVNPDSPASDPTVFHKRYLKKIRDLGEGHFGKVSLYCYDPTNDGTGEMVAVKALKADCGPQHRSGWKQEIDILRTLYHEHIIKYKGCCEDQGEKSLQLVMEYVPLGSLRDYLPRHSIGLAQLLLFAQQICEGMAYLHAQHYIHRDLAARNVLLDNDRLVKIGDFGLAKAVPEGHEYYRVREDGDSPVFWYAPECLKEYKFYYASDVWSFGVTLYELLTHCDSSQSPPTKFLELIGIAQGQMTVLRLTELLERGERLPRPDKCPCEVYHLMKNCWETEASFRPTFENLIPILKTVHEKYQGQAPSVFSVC

SMILES | GI50 [nM]
[2H]C([2H])([2H])NC(=O)c1cnc(NC(=O)C2CC2)cc1Nc1nn(CCOC)c2ccn(CC(F)(F)F)c(=O)c12 [Example 54, 6-(Cyclopropanecarboxamido)-4-((1-(2-methoxyethyl)-4-oxo-5-(2,2,2-trifluoroethyl)-4,5-dihydro-1H-pyrazolo[4,3-c]pyridin-3-yl)amino)-N-(methyl-d3)nicotinamide] | 1090
[2H]C([2H])([2H])NC(=O)c1nnc2cc1Nc1cc(cc(-c3ncn(C4CC4)n3)c1OC)COCc1cc(F)cc(n1)N2 [Example 88, 11-(1-Cyclopropyl-1H-1,2,4-triazol-3-yl)-19-fluoro-10-methoxy-N-(methyl-d3)-15-oxa-2,4,5,8,21-pentaazatetracyclo[15.3.1.1^{3,7}.1^{9,13}]tricosa-1(21),3,5,7(23),9(22),10,12,17,19-nonaene-6-carboxamide] | 46.9
[2H]C([2H])([2H])NC(=O)c1cnc(NC(=O)C2CC2)cc1Nc1csc2cnn(C(C)C(F)(F)F)c(=O)c12 (single isomer, unassigned) [Example 185B, (S*)-6-(Cyclopropanecarboxamido)-N-(methyl-d3)-4-((4-oxo-5-(1,1,1-trifluoropropan-2-yl)-4,5-dihydrothieno[2,3-d]pyridazin-3-yl)amino)nicotinamide] | 912
[2H]C([2H])([2H])NC(=O)c1cnc(NC(=O)C2CC2)cc1Nc1csc2cnn(C(C)CC)c(=O)c12 (stereo not shown) [Example 180, 4-((5-(Sec-butyl)-4-oxo-4,5-dihydrothieno[2,3-d]pyridazin-3-yl)amino)-6-(cyclopropanecarboxamido)-N-(methyl-d3)nicotinamide] | 1350
[2H]C([2H])([2H])NC(=O)c1cnc(NC(=O)C2CC2)cc1Nc1csc2cnn(C(C)C(F)(F)F)c(=O)c12 (single isomer, unassigned) [Example 185A, (R*)-6-(cyclopropanecarboxamido)-N-(methyl-d3)-4-((4-oxo-5-(1,1,1-trifluoropropan-2-yl)-4,5-dihydrothieno[2,3-d]pyridazin-3-yl)amino)nicotinamide] | 205
CNC(=O)c1nnc(NC(=O)C2CC2)cc1Nc1cccc2cc[nH]c(=O)c12 [Example 26, 6-(Cyclopropanecarboxamido)-N-methyl-4-((1-oxo-1,2-dihydroisoquinolin-8-yl)amino)pyridazine-3-carboxamide] | > 20000
CNC(=O)c1cnc(NC(=O)C2CC2)cc1Nc1cn(C)c2ccn(C(C)C)c(=O)c12 [Example 50, 6-(Cyclopropanecarboxamido)-4-((5-isopropyl-1-methyl-4-oxo-4,5-dihydro-1H-pyrrolo[3,2-c]pyridin-3-yl)amino)-N-methylnicotinamide] | 371
[2H]C([2H])([2H])NC(=O)c1cnc(NC(=O)C2CC2)cc1Nc1ccc2cnn(C([2H])([2H])[2H])c2c1OC [Example 140, 6-(Cyclopropanecarboxamido)-4-((7-methoxy-1-(methyl-d3)-1H-indazol-6-yl)amino)-N-(methyl-d3)nicotinamide] | 82.4
[2H]C([2H])([2H])NC(=O)c1cnc(Nc2ccc(F)cn2)cc1Nc1cn(C)c2c(Cl)cn(C([2H])([2H])[2H])c(=O)c12 [Example 170, 4-((7-Chloro-1-methyl-5-(methyl-d3)-4-oxo-4,5-dihydro-1H-pyrrolo[3,2-c]pyridin-3-yl)amino)-6-((5-fluoropyridin-2-yl)amino)-N-(methyl-d3)nicotinamide] | 27.6
[2H]C([2H])([2H])NC(=O)c1nnc2cc1Nc1cc(cc(-c3ncn(C)n3)c1OC)CCC(O)c1nc(ccc1F)N2 (stereo not shown) [Example 92, 18-Fluoro-16-hydroxy-10-methoxy-N-(methyl-d3)-11-(1-methyl-1H-1,2,4-triazol-3-yl)-2,4,5,8,21-pentaazatetracyclo[15.3.1.1^{3,7}.1^{9,13}]tricosa-1(20),3,5,7(23),9(22),10,12,17(21),18-nonaene-6-carboxamide] | 300
[2H]C([2H])([2H])NC(=O)c1nnc2cc1Nc1cc(cc(-c3ccc(F)cc3)c1OC)COCc1nc(ccc1F)N2 [Example 73, 18-Fluoro-11-(4-fluorophenyl)-10-methoxy-N-(methyl-d3)-15-oxa-2,4,5,8,21-pentaazatetracyclo[15.3.1.1^{3,7}.1^{9,13}]tricosa-1(20),3,5,7(23),9(22),10,12,17(21),18-nonaene-6-carboxamide] | 7980
[2H]C([2H])([2H])NC(=O)c1cnc(Nc2ccc(F)cn2)cc1Nc1ccn2ncc(C)c2c1OC [Example 222, 6-((5-Fluoropyridin-2-yl)amino)-4-((4-methoxy-3-methylpyrazolo[1,5-a]pyridin-5-yl)amino)-N-(methyl-d3)nicotinamide] | 155
CNC(=O)c1cnc(Nc2ccc(F)cn2)cc1Nc1cccc(C(F)(F)F)c1OC [Example 55, 6-((5-Fluoropyridin-2-yl)amino)-4-((2-methoxy-3-(trifluoromethyl)phenyl)amino)-N-methylnicotinamide] | 627
[2H]C([2H])([2H])NC(=O)c1cnc(NC(=O)C2CC2)cc1Nc1ccc2cnn(CCOC)c2c1OC [Example 130, 6-(Cyclopropanecarboxamido)-4-((7-methoxy-1-(2-methoxyethyl)-1H-indazol-6-yl)amino)-N-(methyl-d3)nicotinamide] | 357
[2H]C([2H])([2H])NC(=O)c1cnc(Nc2cnn(C)c2)nc1Nc1ccc2cnn(CC)c2c1OC([2H])([2H])[2H] [Example 136, 4-((1-Ethyl-7-(methoxy-d3)-1H-indazol-6-yl)amino)-N-(methyl-d3)-2-((1-methyl-1H-pyrazol-4-yl)amino)pyrimidine-5-carboxamide] | 326
[2H]C([2H])([2H])NC(=O)c1cnc(NC(=O)C2CC2)cc1Nc1cn(CCOC2CC2)c2ccn(CC)c(=O)c12 [Example 221, 6-(Cyclopropanecarboxamido)-4-((1-(2-cyclopropoxyethyl)-5-ethyl-4-oxo-4,5-dihydro-1H-pyrrolo[3,2-c]pyridin-3-yl)amino)-N-(methyl-d3)nicotinamide] | 294
CCn1cc(Nc2cc(NC(=O)C3CC3)ncc2C(=O)NC)c2c(=O)n([C@H](C)C(F)(F)F)cnc21 (single isomer, unassigned) [Example 254A, (R*)-6-(cyclopropanecarboxamido)-4-((7-ethyl-4-oxo-3-(1,1,1-trifluoropropan-2-yl)-4,7-dihydro-3H-pyrrolo[2,3-d]pyrimidin-5-yl)amino)-N-(methyl-d3)nicotinamide] | 179
[2H]C([2H])([2H])NC(=O)c1cnc(NC(=O)C2CC2)cc1Nc1ccc2cnn(C(C)C)c2c1OC [Example 126, 6-(Cyclopropanecarboxamido)-4-((1-isopropyl-7-methoxy-1H-indazol-6-yl)amino)-N-(methyl-d3)nicotinamide] | 522
COC(=O)c1cnc(NC(=O)C2CC2)cc1Nc1csc2c(C#N)cn(C)c(=O)c12 [Example 186, Methyl 4-((7-cyano-5-methyl-4-oxo-4,5-dihydrothieno[3,2-c]pyridin-3-yl)amino)-6-(cyclopropanecarboxamido)nicotinate] | 309
[2H]C([2H])([2H])NC(=O)c1cnc(NC(=O)C2CC2)cc1Nc1cn(C)c2ccn(-c3cnn(C)c3)c(=O)c12 [Example 120, 6-(Cyclopropanecarboxamido)-N-(methyl-d3)-4-((1-methyl-5-(1-methyl-1H-pyrazol-4-yl)-4-oxo-4,5-dihydro-1H-pyrrolo[3,2-c]pyridin-3-yl)amino)nicotinamide] | 1120
CCn1ccc2c(c(Nc3nc(Nc4ccc(F)cc4F)ncc3C(=O)NC)cn2C)c1=O [Example 9, 2-((2,4-Difluorophenyl)amino)-4-((5-ethyl-1-methyl-4-oxo-4,5-dihydro-1H-pyrrolo[3,2-c]pyridin-3-yl)amino)-N-methylpyrimidine-5-carboxamide] | 740
[2H]C([2H])([2H])NC(=O)c1cnc(NC(=O)C2CC2)cc1Nc1cn(C)c2ccn([C@@H]3CCOC3)c(=O)c12 [Example 114, (R)-6-(cyclopropanecarboxamido)-N-(methyl-d3)-4-((1-methyl-4-oxo-5-(tetrahydrofuran-3-yl)-4,5-dihydro-1H-pyrrolo[3,2-c]pyridin-3-yl)amino)nicotinamide] | 1100
[2H]C([2H])([2H])NC(=O)c1cnc(NC(=O)C2CC2)cc1Nc1cn(C([2H])([2H])[2H])c2ccn(C(C)C(F)(F)F)c(=O)c12 (stereo not shown) [Example 199, 6-(Cyclopropanecarboxamido)-N-(methyl-d3)-4-((1-(methyl-d3)-4-oxo-5-(1,1,1-trifluoropropan-2-yl)-4,5-dihydro-1H-pyrrolo[3,2-c]pyridin-3-yl)amino)nicotinamide] | 175
CCn1ncc2scc(Nc3cc(NC(=O)C4CC4)ncc3C(=O)OC)c2c1=O [Example 178, Methyl 6-(cyclopropanecarboxamido)-4-((5-ethyl-4-oxo-4,5-dihydrothieno[2,3-d]pyridazin-3-yl)amino)nicotinate] | 287
[2H]C([2H])([2H])NC(=O)c1cnc(NC(=O)C2CC2)cc1Nc1csc2c(Cl)cn(CC(F)(F)F)c(=O)c12 [Example 176, 4-((7-Chloro-4-oxo-5-(2,2,2-trifluoroethyl)-4,5-dihydrothieno[3,2-c]pyridin-3-yl)amino)-6-(cyclopropanecarboxamido)-N-(methyl-d3)nicotinamide] | 183
